This experiment concerns the target Bile acid receptor NR1H4 (Homo sapiens) (UniProt Q96RI1). Put plainly: Agonist activity at FXR in human HepG2 cells.

Sequence of Bile acid receptor NR1H4 (Homo sapiens) (Q96RI1 whole entry, looked up): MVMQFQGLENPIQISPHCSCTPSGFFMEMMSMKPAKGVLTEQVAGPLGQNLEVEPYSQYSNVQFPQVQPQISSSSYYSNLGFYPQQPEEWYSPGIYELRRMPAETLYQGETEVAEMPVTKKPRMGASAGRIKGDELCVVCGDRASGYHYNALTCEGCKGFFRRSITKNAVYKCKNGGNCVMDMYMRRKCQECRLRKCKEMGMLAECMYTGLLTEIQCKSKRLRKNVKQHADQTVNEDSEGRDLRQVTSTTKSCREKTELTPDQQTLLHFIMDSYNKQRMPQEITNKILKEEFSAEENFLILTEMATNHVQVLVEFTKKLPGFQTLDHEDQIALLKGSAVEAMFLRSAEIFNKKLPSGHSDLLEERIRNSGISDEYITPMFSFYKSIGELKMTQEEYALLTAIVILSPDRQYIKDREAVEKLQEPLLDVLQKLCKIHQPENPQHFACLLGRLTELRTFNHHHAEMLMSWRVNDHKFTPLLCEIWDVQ

On to `O=C(O)c1cc(F)c2nc(N3C[C@@H]4C[C@H]3C[C@H]4OCc3c(-c4ccccc4OC(F)(F)F)noc3C3CC3)sc2c1`, for which the EC50 (commonly the concentration needed to bring the measured effect to its halfway point) is 0.35 nM.
In the case of `O=C(O)c1ccc([C@@H]2C[C@H]2c2ccc(OCc3c(-c4c(Cl)cccc4Cl)noc3C3CC3)cc2Cl)cc1`, the EC50 amounted to 0.75 nM.

The record behind these values is BindingDB's records for PubMed 34889100 (University of Health Sciences and Pharmacy, 2021).
